Measured values taken from publication PMC9182199, “Borylated 2,3,4,5-Tetrachlorophthalimide and Their 2,3,4,5-Tetrachlorobenzamide Analogues: Synthesis, Their Glycosidase Inhibition and Anticancer Properties in View to Boron Neutron Capture Therapy” (Molecules, 2022).

Key:
yeast α-glucosidase = biological target: T1, yeast α-glucosidase (Saccharomyces cerevisiae, UniProt P53341); assay: Glycosidase inhibition, laboratory 2: yeast α-glucosidase; type: biochemical; settings: for inhibition at 400 µM: read-out: % inhibition at ~400 μM, water; for % inhibition at ~400 μM: water
T1 construct: purchased Sigma
Method: All enzymes and para-nitrophenyl substrates were purchased from Sigma. Enzymes were assayed at 27 °C in 0.1 M citric acid/0.2 M disodium hydrogen phosphate buffers at the optimum pH for the enzyme. The incubation mixture consisted of 10 μL enzyme solution, 10 μL of 1 mg/mL aqueous solution of extract and 50 μL of the appropriate 5 mM para-nitrophenyl substrate made up in buffer at the optimum pH for the enzyme. The reactions were stopped by addition of 70 μL 0.4 M glycine (pH 10.4) during the exponential phase of the reaction, which had been determined at the beginning using uninhibited assays in which water replaced inhibitor. Final absorbances were read at 405 nm using a Versamax microplate reader (Molecular Devices). Assays were carried out in triplicate, and the values given are means of the three replicates per assay. All reactions run in water.

SJ-G2 [1] = assay: MTT cell growth inhibition: SJ-G2; type: cell-based; settings: SJ-G2 glioblastoma, 72 h; for inhibition at 25 µM: read-out: Percentage (%) Cell Growth Inhibition in response to 25 µM of Drug
Method: (§1) All test agents were prepared as stock solutions (20 mM) in dimethyl sulfoxide (DMSO) and stored at −20 °C. Cell lines used in the study included HT29 (colorectal carcinoma); U87, SJ-G2, (glioblastoma); MCF-7, (breast carcinoma); A2780 (ovarian carcinoma); H460 (lung carcinoma); A431 (skin carcinoma); Du145 (prostate carcinoma); BE2-C (neuroblastoma); MiaPaCa-2 (pancreatic carcinoma); and SMA560 (spontaneous murine astrocytoma), together with the one non-tumour-derived normal breast cell line (MCF10A). All cell lines were incubated in a humidified atmosphere 5% CO2 at 37 °C. The cancer cell lines were maintained in Dulbecco’s modified Eagle’s medium (DMEM; Sigma, Australia) supplemented with foetal bovine serum (10%), sodium pyruvate (10 mM), penicillin (100 IUmL^−1), streptomycin (100 µg mL^−1) and L-glutamine (2 mM).
(§2) Growth inhibition was determined by plating cells in duplicate in medium (100 µL) at a density of 2500–4000 cells per well in 96-well plates. On day 0 (24 h after plating), when the cells were in logarithmic growth, medium (100 µL) with or without the test agent was added to each well. After 72 h drug exposure, growth inhibitory effects were evaluated using the MTT (3-(4,5-dimethyltiazol-2-yl)-2,5-diphenyltetrazolium bromide) assay and absorbance read at 540 nm. The percentage growth inhibition was calculated at a fixed concentration of 25 µM, based on the difference between the optical density values on day 0 and those at the end of drug exposure. Each data point is the mean ± the standard error of the mean (SEM) calculated from three replicates which were performed on separate occasions and separate cell line passages.

[2] = Appearance of the 1 mg/mL aqueous solution tested; type: physicochemical; settings: 1 mg/mL in water
MCF10A [3] = assay: MTT cell growth inhibition: MCF10A normal breast; type: cell-based; settings: 72 h; for inhibition at 25 µM: Homo sapiens, MCF-10A, read-out: Percentage (%) Cell Growth Inhibition in response to 25 µM of Drug; for Percentage (%) Cell Growth Inhibition in response to 25 µM of Drug: MCF10A breast (normal), MTT
Method: as §1
The non-cancer MCF10A cell line was maintained in DMEM:F12 (1:1) cell culture media, 5% heat-inactivated horse serum, supplemented with penicillin (50 IUmL^−1), streptomycin (50 µg mL^−1), HEPES (20 mM), L-glutamine (2 mM), epidermal growth factor (20 ng mL^−1), hydrocortisone (500 ng mL^−1), cholera toxin (100 ng mL^−1) and insulin ([…]).
as §2

[4] = biological target: T2, bovine liver β-glucosidase (Bos taurus, UniProt F1MNT6); assay: Glycosidase inhibition, laboratory 1: bovine liver β-glucosidase; type: biochemical; settings: methanol
T2 sequence (F1MNT6 1-469): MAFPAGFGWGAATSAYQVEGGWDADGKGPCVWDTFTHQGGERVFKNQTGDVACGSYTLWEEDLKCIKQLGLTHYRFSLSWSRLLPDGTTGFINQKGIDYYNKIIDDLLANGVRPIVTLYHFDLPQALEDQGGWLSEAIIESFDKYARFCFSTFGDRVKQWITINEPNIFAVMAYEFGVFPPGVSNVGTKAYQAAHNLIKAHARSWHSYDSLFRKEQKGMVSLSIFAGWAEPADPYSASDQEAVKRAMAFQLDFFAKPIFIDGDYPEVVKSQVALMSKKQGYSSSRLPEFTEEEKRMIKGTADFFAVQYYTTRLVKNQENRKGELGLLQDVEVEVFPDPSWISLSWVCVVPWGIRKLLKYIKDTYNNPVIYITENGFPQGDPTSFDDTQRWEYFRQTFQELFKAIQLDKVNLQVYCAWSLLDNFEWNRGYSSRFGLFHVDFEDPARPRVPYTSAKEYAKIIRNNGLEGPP
Description: The enzymes α-glucosidase (from yeast), β-glucosidases (from almond and bovine liver), α-galactosidase (from coffee beans), β-galactosidase (from bovine liver), α-mannosidase (from Jack bean), β-mannosidase (from snail), α-L-rhamnosidase (from Penicillium decumbens), α-L-fucosidase (from bovine kidney), trehalase (from porcine kidney), β-glucuronidases (from E. coli and bovine liver), amyloglucosidase (from A. niger), para-nitrophenyl glycosides, and various disaccharides were purchased from Sigma-Aldrich Co (St Louis, MO, USA).
Brush border membranes were prepared from the rat small intestine according to the method of Kessler et al. and were assayed at pH 6.8 for rat intestinal maltase using maltose. For rat intestinal maltase, porcine kidney trehalase, and A. niger amyloglucosidase activities, the reaction mixture contained 25 mM maltose and the appropriate amount of enzyme, and the incubations were performed for 10–30 min at 37 °C. The reaction was stopped by heating at 100 °C for 3 min. After centrifugation (600× g; 10 min), the resulting reaction mixture was added to the Glucose CII-test Wako (Wako Pure Chemical Ind., Osaka, Japan). The absorbance at 505 nm was measured to determine the amount of the released D-glucose. Other glycosidase activities were determined using an appropriate para-nitrophenyl glycoside as substrate at the optimum pH of each enzyme. The reaction mixture contained 2 mM of the substrate and the appropriate amount of enzyme. The reaction was stopped by addition of 400 mM Na2CO3. The released para-nitrophenol was measured spectrometrically at 400 nm. All reactions run in methanol.

[5] = tested on: panel of 10 cancer cell lines and a normal cell line (MCF10A); assay: Cancer screening: whole cell line panel; type: cell-based; settings: for GI50: Homo sapiens, read-out: GI50 values across all cancer cell lines and the normal cell line
SJ-G2 [6] = assay: MTT cell growth inhibition: SJ-G2; type: cell-based; settings: read-out: GI50 = Concentration (µM) that inhibits cell growth by 50%; SJ-G2 glioblastoma; dose response
MCF10A [7] = assay: MTT cell growth inhibition: MCF10A normal breast; type: cell-based; settings: Homo sapiens, MCF-10A, read-out: GI50 = Concentration (µM) that inhibits cell growth by 50%
MIA-Pa-Ca2 = assay: MTT cell growth inhibition: MIA-Pa-Ca2; type: cell-based; settings: Homo sapiens, MIA PaCa-2, read-out: GI50 = Concentration (µM) that inhibits cell growth by 50%; MIA-Pa-Ca2 pancreatic carcinoma; dose response

T1 sequence (P53341 whole entry): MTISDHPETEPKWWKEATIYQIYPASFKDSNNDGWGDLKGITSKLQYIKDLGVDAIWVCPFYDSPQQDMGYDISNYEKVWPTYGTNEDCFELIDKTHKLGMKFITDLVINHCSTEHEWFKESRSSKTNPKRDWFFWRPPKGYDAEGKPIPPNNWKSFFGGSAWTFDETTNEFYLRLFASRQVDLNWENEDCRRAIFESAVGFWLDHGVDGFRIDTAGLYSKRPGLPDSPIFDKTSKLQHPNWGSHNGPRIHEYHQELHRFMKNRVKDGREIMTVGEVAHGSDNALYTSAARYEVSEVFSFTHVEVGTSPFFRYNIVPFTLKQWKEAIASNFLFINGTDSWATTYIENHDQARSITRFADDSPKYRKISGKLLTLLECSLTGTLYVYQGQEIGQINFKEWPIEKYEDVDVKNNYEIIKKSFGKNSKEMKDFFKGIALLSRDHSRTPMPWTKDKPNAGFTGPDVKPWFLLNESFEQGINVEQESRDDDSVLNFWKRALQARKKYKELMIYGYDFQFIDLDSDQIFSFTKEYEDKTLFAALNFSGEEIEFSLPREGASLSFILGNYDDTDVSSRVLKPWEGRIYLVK

| Molecule | inhibition at 400 µM (yeast α-glucosidase) [%] | inhibition at 25 µM (SJ-G2 [1]) [%] | Appearance of the 1 mg/mL Aqueous Solution Tested [2] | inhibition at 25 µM (MCF10A [3]) [%] | % inhibition at ~400 μM (yeast α-glucosidase) [%] | Percentage (%) Cell Growth Inhibition in response to 25 µM of Drug (SJ-G2 [1]) [%] | inhibition % at 100 μM ([4]; 100 μM) | Percentage (%) Cell Growth Inhibition in response to 25 µM of Drug (MCF10A [3]) [%] | GI50 [5] [µM] | GI50 (SJ-G2 [6]) [µM] | inhibition at 10 µM [4] [%] | GI50 (MCF10A [7]) [µM] | GI50 (MIA-Pa-Ca2) [µM] | Percent cell growth inhibition across the cell line panel ([5]; 25 μM, range or words over cell lines) | inhibition at 100 µM ([4]; 100 μM) [%] | inhibition % at 1000 μM ([4]; 1000 μM) |
| --- | --- | --- | --- | --- | --- | --- | --- | --- | --- | --- | --- | --- | --- | --- | --- | --- |
| N[C@@H](Cc1ccc(B(O)O)cc1)C(=O)O [BPA, 4-borono-L-phenylalanine, reference compound] | 2.9 | 5 ± 8 | some in solution with undissolved sediment | 4 ± 1 | – | – | – | – | – | – | – | – | – | – | – | – |
| N[C@@H](Cc1ccc(B(O)O)cc1)C(=O)O [^10B-BPA, reference compound] | – | – | some in solution with undissolved sediment | – | 3.4 | 5 ± 10 | ^cNI ^d (14.2%) | <0 | – | – | – | – | – | – | – | – |
| CC1(C)OB(c2cccc(CN3C(=O)c4c(Cl)c(Cl)c(Cl)c(Cl)c4C3=O)c2)OC1(C)C [meta 3, 4,5,6,7-Tetrachloro-2-(3-(4,4,5,5-tetramethyl-1,3,2-dioxaborolan-2-yl)benzyl)isoindoline-1,3-dione] | 32.2 | 35 ± 4 | opaque suspension | 69 ± 7 | – | – | – | – | 18 to 38 | 35 ± 1.7 | 18.8 | 18 ± 1 | 38 ± 2.9 | – | – | – |
| CC1(C)OB(c2cccc(NC(=O)c3cc(Cl)c(Cl)c(Cl)c3Cl)c2)OC1(C)C [meta 5, 2,3,4,5-tetrachloro-N-(3-(4,4,5,5-tetramethyl-1,3,2-dioxaborolan-2-yl)phenyl)benzamide] | 82.8 | < 0 | some in solution with undissolved sediment | < 0 | – | – | – | – | – | – | – | – | – | – | – | – |
| CC1(C)OB(c2ccccc2NC(=O)c2cc(Cl)c(Cl)c(Cl)c2Cl)OC1(C)C [ortho 5, 2,3,4,5-Tetrachloro-N-(2-(4,4,5,5-tetramethyl-1,3,2-dioxaborolan-2-yl)phenyl)benzamide] | 17.3 | 92 ± 5 | some in solution with undissolved sediment | 58 ± 9 | – | – | – | – | 11 to 27 | 16 ± 0.91 | 21.2 | 27 ± 2.8 | 14 ± 0.25 | – | – | – |
| CC1(C)OB(c2ccccc2CNC(=O)c2cc(Cl)c(Cl)c(Cl)c2Cl)OC1(C)C [ortho 8, 2,3,4,5-tetrachloro-N-(2-(4,4,5,5-tetramethyl-1,3,2-dioxaborolan-2-yl)benzyl)benzamide] | 68.9 | < 0 | some in solution with undissolved sediment | < 0 | – | – | – | – | – | – | – | – | – | almost complete abrogation of cell growth inhibition | – | – |
| CC1(C)OB(c2ccc(CN3C(=O)c4c(Cl)c(Cl)c(Cl)c(Cl)c4C3=O)cc2)OC1(C)C [para 3, 4,5,6,7-Tetrachloro-2-(4-(4,4,5,5-tetramethyl-1,3,2-dioxaborolan-2-yl)benzyl)isoindoline-1,3-dione] | 29.3 | > 100 | some in solution with undissolved sediment | > 100 | – | – | – | – | 3 to 18 | 6.6 ± 2.4 | – | 12 ± 0.58 | 9.2 ± 1.9 | – | 4 | – |
| CC1(C)OB(c2ccc(NC(=O)c3cc(Cl)c(Cl)c(Cl)c3Cl)cc2)OC1(C)C [para 5, 2,3,4,5-tetrachloro-N-(4-(4,4,5,5-tetramethyl-1,3,2-dioxaborolan-2-yl)phenyl)benzamide] | 38.4 | 28 ± 6 | some in solution with undissolved sediment | 2 ± 11 | – | – | – | – | – | – | – | – | – | – | – | – |
| Borocaptate sodium [BSH, reference compound] | – | – | in solution | – | 59 | 3 ± 8 | – | 8 ± 3 | – | – | – | – | – | – | – | ^aNI ^b (15%) |
